Assay results as given in patent US9096615B2, “Bridged bicyclic amino thiazine dioxide compounds as inhibitors of beta-secretase and methods of use thereof” (AMGEN INC., priority 2013, dated 2015).
Like-named read-outs stand apart in the source and are kept apart here.

Columns and labels:
BACE1 = BACE1 (Homo sapiens, UniProt P56817); assay: In vitro enzymatic BACE FRET assay; type: biochemical
Procedure, shortened: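 Fluorescence (excitation 488 nm, […]) from cleavage of quenched peptide substrate (50 nM), reaction run 1 h after 1 h enzyme–inhibitor pre-incubation, then neutralised with Tris. Conditions: 0.2 nM enzyme, pH 4.2 acetate 0.05 M, 10% DMSO final, 100 uM genapol.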

[1] = test system: Aβ40 in conditioned medium of cells stably expressing Amyloid Precursor Protein (APP); assay: In vitro BACE cell-based assay (HEK cell assay, Aβ40 sandwich ELISA); conditions: Homo sapiens, HEK293
Procedure, shortened: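 IC50 was derived from percent-of-control Aβ40 against concentration, with Aβ40 quantified by time-resolved fluorescence ELISA (pAb40/6E10-biotin, 4 °C incubations). Supernatants were sampled after 24 h of compound exposure (10 points, starting 100 or 10 μM, 0.1% DMSO) of cells stably expressing APP.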

Cathepsin D (Cat D) = biological target: T1, Cathepsin D (Cat D) (Homo sapiens, UniProt P07339); assay: In vitro enzymatic Cathepsin D (Cat D) FRET assay; type: biochemical; conditions: read-out: CatD IC50
T1 construct: made in house; host or cells: CHO cells
Procedure, shortened: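 Fluorescence (500 nm excitation, 580 nm emission) was measured after Tris quench of a 1 h cleavage of 20 nM quenched peptide substrate. Before that, 9 nM CHO-expressed human Cat D sat with compound for 1 h at pH 3.5 (0.05 M citrate, 5 mM CHAPS, 10% DMSO final).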

Abeta 40 = assay: In vivo inhibition of beta-secretase: percent Abeta 40 reduction in CSF and brain; design: species or system rat; conditions: 10 mpk, after 4 hrs
Excerpt: In Vivo Inhibition of Beta-Secretase
Several animal models, including mouse, rat, dog, and monkey, may be used to screen for inhibition of beta-secretase activity in vivo following administration of a test compound sample. Animals used in this invention can be wild type, transgenic, or gene knockout animals. For example, the Tg2576 mouse model, prepared and conducted as described in Hsiao et al., 1996, Science 274, 99-102, and other non-transgenic or gene knockout animals are useful to analyze in vivo inhibition of Amyloid beta peptide (Abeta) production in the presence of inhibitory test compounds. Generally, 2 to 18 month old Tg2576 mice, gene knockout mice or non-transgenic animals are administered test compounds formulated in vehicles, such as cyclodextran, phosphate buffers, hydroxypropyl methylcellulose or other suitable vehicles. One to twenty-four hours following the administration of compound, animals are sacrificed, and brains as well as cerebrospinal fluid (CSF) and plasma are removed for analysis of A-beta levels and drug or test compound concentrations (Dovey et al., 2001, Journal of Neurochemistry, 76, 173-181) Beginning at time 0, animals are administered by oral gavage, or other means of delivery such as intravenous injection, an inhibitory test compound of up to 100 mg/kg in a standard, conventional formulation, such as 2% hydroxypropyl methylcellulose, 1% Tween80. A separate group of animals receive 2% hydroxypropyl methylcellulose, 1% Tween80 alone, containing no test compound, and serve as a vehicle-control group. At the end of the test period, animals are sacrificed and brain tissues, plasma or cerebrospinal fluid are collected. Brains are either homogenized in 10 volumes (w/v) of 0.2% diethylamine (DEA) in 50 mM NaCl (Best et al., 2005, Journal of Pharmacology and Experimental Therapeutics, 313, 902-908), or in 10 volumes of 0.5% TritonX-100 in Tris-buffered saline (pH at about 7.6). Homogenates are centrifuged at 355,000 g, 4° C. for 30 minutes. CSF or brain supernatants are then analyzed for the presence of A-beta peptide by specific sandwich ELISA assays based on ECL (Electrochemiluminescence) technology. For example, rat Abeta40 is measured using biotinylated-4G8 (Signet) as a capture antibody and Fab40 (an in-house antibody specific to the C-terminal of Abeta40) as a detection antibody. For example, 4 hours after administration of 30 mg/kg oral dose of the test compound in 2% hydroxypropyl methylcellulose, 1% Tween80 (pH2.2) to 200 g male Sprague Dawley rats, amyloid beta peptide levels are measured for reduction by X % and Y % in cerebrospinal fluid and brain, respectively, when compared to the levels measured in the vehicle-treated or control […].
Actual vehicles used: Oral: 2% HPMC, 1% Tween80, pH 2.2
• IV: 5% EtOH, 45% Propylene glycol in 5% Dextrose
The compounds of the invention may be shown to reduce the formation and/or deposition of amyloid beta peptide in the cerebrospinal fluid (CSF) as well as in the brain of a mouse or rat at either 3 mpk, 10 mpk or 30 mpk (mpk=mg compound per kg weight of the animal) dosing concentrations after 4 hrs.

[2] = read-out: BACE1 FRET assay IC50
[3] = Aβ40, 24 h incubation, read-out: HEK cell assay IC50
[4] = Abeta 40, rat CSF, read-out: % reduction of rat CSF levels at 10 pmk
[5] = Abeta 40, rat brain, read-out: % reduction of rat brain levels at 10 mpk
[6] = average IC50, read-out: BACE1 Enzyme assay IC50
[7] = average IC50, read-out: BACE1 cell assay IC50

BACE1, sequence (P56817 46-501, species assumed): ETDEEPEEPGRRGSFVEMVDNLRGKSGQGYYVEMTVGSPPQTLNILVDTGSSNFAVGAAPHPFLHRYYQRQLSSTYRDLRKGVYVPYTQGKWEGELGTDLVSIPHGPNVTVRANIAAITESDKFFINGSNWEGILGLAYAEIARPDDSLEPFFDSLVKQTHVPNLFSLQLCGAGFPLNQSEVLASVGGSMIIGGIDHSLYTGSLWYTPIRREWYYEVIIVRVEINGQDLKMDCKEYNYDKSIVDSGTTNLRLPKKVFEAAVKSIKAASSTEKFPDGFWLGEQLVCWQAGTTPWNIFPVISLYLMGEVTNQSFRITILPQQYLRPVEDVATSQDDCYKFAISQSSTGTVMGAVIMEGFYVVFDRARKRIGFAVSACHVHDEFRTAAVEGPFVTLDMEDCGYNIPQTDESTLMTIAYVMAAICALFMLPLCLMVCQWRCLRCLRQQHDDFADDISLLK
T1 sequence (P07339 65-412, species assumed): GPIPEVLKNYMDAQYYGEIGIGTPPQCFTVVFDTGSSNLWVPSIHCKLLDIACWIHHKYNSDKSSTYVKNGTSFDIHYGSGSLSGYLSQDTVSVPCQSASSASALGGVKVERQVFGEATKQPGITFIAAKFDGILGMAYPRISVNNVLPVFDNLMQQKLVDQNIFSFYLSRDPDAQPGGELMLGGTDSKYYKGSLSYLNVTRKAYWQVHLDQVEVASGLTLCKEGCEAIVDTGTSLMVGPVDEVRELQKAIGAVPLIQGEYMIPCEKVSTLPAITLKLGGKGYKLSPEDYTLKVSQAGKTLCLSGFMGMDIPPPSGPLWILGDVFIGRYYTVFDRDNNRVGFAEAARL

SMILES	IC50 (BACE1; [2])	IC50 [1, 3]	IC50 (Cathepsin D (Cat D))	inhibition in vivo at 10 mg/kg (Abeta 40; [4])	inhibition in vivo at 10 mg/kg (Abeta 40; [5])	IC50 (BACE1; [6])	IC50 [1, 7]	IC50 (Cathepsin D (Cat D); average IC50, first procedure)
Cc1cc(Cl)cnc1C(=O)Nc1ccc(F)c([C@@]2(C)N=C(N)[C@@]3(C)CC[C@@H]2S3(=O)=O)c1 [Example 22, N-(3-((1S,2R,5R)-4-Amino-2,5-dimethyl-8,8-dioxido-8-thia-3-azabicyclo[3.2.1]oct-3-en-2-yl)-4-fluorophenyl)-5-chloro-3-methylpicolinamide]	0.002 µM	0.002 µM	1740 µM	76%	66%			
Cc1cc(C(F)(F)F)cnc1C(=O)Nc1ccc(F)c([C@@]2(C)N=C(N)[C@@]3(C)CC[C@@H]2S3(=O)=O)c1 [Example 24, N-(3-((1S,2R,5R)-4-Amino-2,5-dimethyl-8,8-dioxido-8-thia-3-azabicyclo[3.2.1]oct-3-en-2-yl)-4-fluorophenyl)-3-methyl-5-(trifluoromethyl)picolinamide]	0.005 µM	0.001 µM	591 µM	72%	62%			
C[C@]12CC[C@H]([C@@](C)(c3cc(Nc4ncnc5cc(Cl)cnc45)ccc3F)N=C1N)S2(=O)=O [Example 131, N-(3-((1R,2R,5S)-4-amino-2,5-dimethyl-8,8-dioxido-8-thia-3-azabicyclo[3.2.1]oct-3-en-2-yl)-4-fluorophenyl)-7-chloropyrido[3,2-d]pyrimidin-4-amine]						0.029 µM	0.018 µM	482 µM
COc1cnc2c(Nc3ccc(F)c([C@@]4(C)N=C(N)[C@]5(C)CC[C@H]4S5(=O)=O)c3)ncnc2c1 [Example 133, N-(3-((1R,2R,5S)-4-amino-2,5-dimethyl-8,8-dioxido-8-thia-3-azabicyclo[3.2.1]oct-3-en-2-yl)-4-fluorophenyl)-7-methoxypyrido[3,2-d]pyrimidin-4-amine]						0.096 µM	0.026 µM	1160 µM
CC#CCOc1cnc2c(Nc3ccc(F)c([C@@]4(C)N=C(N)[C@@]5(C)CC[C@@H]4S5(=O)=O)c3)ncc(F)c2c1 [Example 134, N-(3-((1S,2R,5R)-4-amino-2,5-dimethyl-8,8-dioxido-8-thia-3-azabicyclo[3.2.1]oct-3-en-2-yl)-4-fluorophenyl)-3-(2-butyn-1-yloxy)-5-fluoro-1,7-naphthyridin-8-amine]						0.001 µM	0.004 µM	1610 µM
CC#CCOc1cnc2c(Nc3ccc(F)c([C@@]4(C)N=C(N)[C@]5(C)CC[C@H]4S5(=O)=O)c3)ncc(F)c2c1 [Example 135, N-(3-((1R,2R,5S)-4-amino-2,5-dimethyl-8,8-dioxido-8-thia-3-azabicyclo[3.2.1]oct-3-en-2-yl)-4-fluorophenyl)-3-(2-butyn-1-yloxy)-5-fluoro-1,7-naphthyridin-8-amine]						0.003 µM	0.021 µM	614 µM
C[C@]12CC[C@H]([C@@](C)(c3cc(Nc4ncc(F)c5cc(OCC6CC6)cnc45)ccc3F)N=C1N)S2(=O)=O [Example 136, N-(3-((1R,2R,5S)-4-amino-2,5-dimethyl-8,8-dioxido-8-thia-3-azabicyclo[3.2.1]oct-3-en-2-yl)-4-fluorophenyl)-3-(cyclopropylmethoxy)-5-fluoro-1,7-naphthyridin-8-amine]						0.061 µM	0.253 µM	5340 µM
C[C@]1(c2cc(Nc3ncc(F)c4cc(OCC5CC5)cnc34)ccc2F)N=C(N)[C@@]2(C)CC[C@@H]1S2(=O)=O [Example 137, N-(3-((1S,2R,5R)-4-amino-2,5-dimethyl-8,8-dioxido-8-thia-3-azabicyclo[3.2.1]oct-3-en-2-yl)-4-fluorophenyl)-3-(cyclopropylmethoxy)-5-fluoro-1,7-naphthyridin-8-amine]						0.003 µM	0.0654 µM	> 400 µM
CC#CCOc1ccc(C(=O)Nc2ccc(F)c([C@@]3(C)N=C(N)[C@@]4(C)CC[C@@H]3S4(=O)=O)c2)c(F)c1 [Example 138, N-(3-((1S,2R,5R)-4-amino-2,5-dimethyl-8,8-dioxido-8-thia-3-azabicyclo[3.2.1]oct-3-en-2-yl)-4-fluorophenyl)-4-(2-butyn-1-yloxy)-2-fluorobenzamide]						0.061 µM	0.122 µM	> 400 µM
COC[C@]12CC[C@H]([C@@](C)(c3cc(Nc4ncnc5cc(Cl)cnc45)ccc3F)N=C1N)S2(=O)=O [Example 141, N-(3-((1R,2R,5S)-4-amino-5-(methoxymethyl)-2-methyl-8,8-dioxido-8-thia-3-azabicyclo[3.2.1]oct-3-en-2-yl)-4-fluorophenyl)-7-chloropyrido[3,2-d]pyrimidin-4-amine]						0.408 µM	0.327 µM	1180 µM
COC[C@]12CC[C@H]([C@@](C)(c3cc(NC(=O)c4ncc(Cl)cc4C)ccc3F)N=C1N)S2(=O)=O [Example 142, N-(3-((1R,2R,5S)-4-amino-5-(methoxymethyl)-2-methyl-8,8-dioxido-8-thia-3-azabicyclo[3.2.1]oct-3-en-2-yl)-4-fluorophenyl)-5-chloro-3-methyl-2-pyridinecarboxamide]						0.093 µM	0.482 µM	> 400 µM
CC(C)COc1cnc2c(Nc3ccc(F)c([C@@]4(C)N=C(N)[C@@]5(C)CC[C@@H]4S5(=O)=O)c3)nccc2n1 [Example 143, N-(3-((1S,2R,5R)-4-amino-2,5-dimethyl-8,8-dioxido-8-thia-3-azabicyclo[3.2.1]oct-3-en-2-yl)-4-fluorophenyl)-2-(2-methylpropoxy)pyrido[3,4-b]pyrazin-5-amine]						0.009 µM	0.164 µM	150 µM
CCCOc1cnc2c(Nc3ccc(F)c([C@@]4(C)N=C(N)[C@@]5(C)CC[C@@H]4S5(=O)=O)c3)nccc2n1 [Example 144, N-(3-((1S,2R,5R)-4-amino-2,5-dimethyl-8,8-dioxido-8-thia-3-azabicyclo[3.2.1]oct-3-en-2-yl)-4-fluorophenyl)-2-propoxypyrido[3,4-b]pyrazin-5-amine]						0.004 µM	0.071 µM	> 400 µM
Cn1ccc(COc2cnc3c(Nc4ccc(F)c([C@@]5(C)N=C(N)[C@@]6(C)CC[C@@H]5S6(=O)=O)c4)nccc3n2)n1 [Example 147, N-(3-((1S,2R,5R)-4-amino-2,5-dimethyl-8,8-dioxido-8-thia-3-azabicyclo[3.2.1]oct-3-en-2-yl)-4-fluorophenyl)-2-((1-methyl-1H-pyrazol-3-yl)methoxy)pyrido[3,4-b]pyrazin-5-amine]						0.002 µM	0.001 µM	> 400 µM
C[C@]1(c2cc(Nc3nccc4[nH]c(=O)cnc34)ccc2F)N=C(N)[C@@]2(CF)CC[C@@H]1S2(=O)=O [Example 148, 5-((3-((1S,2R,5R)-4-amino-5-(fluoromethyl)-2-methyl-8,8-dioxido-8-thia-3-azabicyclo[3.2.1]oct-3-en-2-yl)-4-fluorophenyl)amino)pyrido[3,4-b]pyrazin-2(1H)-one]						0.016 µM	0.019 µM	217 µM
